Laboratory results taken from ChEMBL document CHEMBL1201862, “PubChem BioAssay data set” (2004).
Calls of active or inactive are those of the source.

Key:
[1] = molecular target: DNA dC->dU-editing enzyme APOBEC-3A (Homo sapiens, UniProt P31941); assay: Dose Response confirmation of small molecule APOBEC3A DNA Deaminase Inhibitors via a fluorescence-based single-stranded DNA deaminase assay. [Related pubchem assays (depositor defined):AID493011, AID493024]; assay type: functional
[2] = molecular target: DNA dC->dU-editing enzyme APOBEC-3G (Homo sapiens, UniProt Q9HC16); assay type: functional;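 note: Dose-response counterscreen measuring inhibition of APOBEC3G DNA deaminase activity, run while confirming APOBEC3A inhibitors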
[3] = molecular target: T1, Short transient receptor potential channel 4 (Mus musculus, UniProt Q9QUQ5); assay: mouse TRPC4 channel inhibitors, dose response, cell-based, HEK293 TRPC4/mu-opioid, Fluo-4 calcium (AID 434942); assay type: functional;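 note: potency of inhibitors blocking the TRPC4 calcium response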
T1 sequence (Q9QUQ5 whole entry): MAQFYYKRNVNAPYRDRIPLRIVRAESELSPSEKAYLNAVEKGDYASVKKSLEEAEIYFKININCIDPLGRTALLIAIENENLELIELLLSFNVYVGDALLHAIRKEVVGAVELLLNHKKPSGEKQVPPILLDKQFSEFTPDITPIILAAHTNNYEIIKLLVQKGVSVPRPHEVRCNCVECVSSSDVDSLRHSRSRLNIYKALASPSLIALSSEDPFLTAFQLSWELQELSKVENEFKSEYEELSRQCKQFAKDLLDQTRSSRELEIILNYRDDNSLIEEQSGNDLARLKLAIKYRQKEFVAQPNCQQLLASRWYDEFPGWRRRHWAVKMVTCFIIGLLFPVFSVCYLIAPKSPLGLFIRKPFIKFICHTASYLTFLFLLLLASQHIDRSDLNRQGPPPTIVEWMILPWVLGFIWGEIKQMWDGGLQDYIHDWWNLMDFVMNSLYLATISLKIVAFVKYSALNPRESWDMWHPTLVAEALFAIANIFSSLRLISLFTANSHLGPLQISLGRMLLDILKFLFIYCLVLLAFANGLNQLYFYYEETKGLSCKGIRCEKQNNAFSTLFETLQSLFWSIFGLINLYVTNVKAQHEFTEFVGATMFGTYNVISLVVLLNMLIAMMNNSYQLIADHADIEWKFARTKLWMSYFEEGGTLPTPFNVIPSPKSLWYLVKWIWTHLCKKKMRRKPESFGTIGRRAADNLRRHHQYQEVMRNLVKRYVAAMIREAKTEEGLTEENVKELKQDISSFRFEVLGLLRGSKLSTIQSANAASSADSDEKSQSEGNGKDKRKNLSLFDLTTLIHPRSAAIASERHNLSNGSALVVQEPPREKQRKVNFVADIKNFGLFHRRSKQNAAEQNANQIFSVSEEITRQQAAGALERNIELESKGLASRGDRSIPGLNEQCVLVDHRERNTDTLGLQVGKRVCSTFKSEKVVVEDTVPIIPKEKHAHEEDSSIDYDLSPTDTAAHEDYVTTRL

[4] = molecular target: T1, Short transient receptor potential channel 4; assay: mouse TRPC4 channel activators, dose response, cell-based, HEK293 TRPC4/mu-opioid, Fluo-4 calcium (AID 434937); assay type: functional
Leucine aminopeptidase = molecular target: T2, Leucine aminopeptidase (Plasmodium falciparum 3D7, UniProt Q8IL11); assay: P. falciparum M17LAP inhibitors, primary screen, biochemical, fluorogenic H-Leu-NHMec substrate, 1536-well (AID 1619); assay type: functional
T2 sequence (Q8IL11 whole entry): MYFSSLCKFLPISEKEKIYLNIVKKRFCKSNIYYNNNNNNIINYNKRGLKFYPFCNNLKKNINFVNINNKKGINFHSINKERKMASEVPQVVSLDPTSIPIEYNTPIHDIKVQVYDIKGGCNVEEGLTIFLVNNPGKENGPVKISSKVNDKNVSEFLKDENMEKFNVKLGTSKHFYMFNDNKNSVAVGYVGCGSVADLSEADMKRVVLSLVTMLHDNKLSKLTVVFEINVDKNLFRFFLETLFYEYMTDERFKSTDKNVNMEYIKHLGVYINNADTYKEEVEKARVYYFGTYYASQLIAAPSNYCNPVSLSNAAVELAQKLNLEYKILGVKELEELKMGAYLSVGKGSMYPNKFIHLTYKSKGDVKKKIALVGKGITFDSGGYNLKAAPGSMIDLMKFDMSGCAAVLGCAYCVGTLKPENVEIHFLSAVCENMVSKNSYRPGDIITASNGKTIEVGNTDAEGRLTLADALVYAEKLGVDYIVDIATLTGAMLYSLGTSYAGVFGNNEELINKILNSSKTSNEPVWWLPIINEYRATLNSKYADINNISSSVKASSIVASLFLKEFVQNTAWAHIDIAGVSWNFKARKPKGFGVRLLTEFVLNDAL

Aminopeptidase N = molecular target: T3, Aminopeptidase N (Plasmodium falciparum FcB1/Columbia, UniProt O96935); assay: P. falciparum M1AAP inhibitors, biochemical, fluorogenic H-Leu-NHMec substrate, 1536-well (AID 1445); parameters: species or system Plasmodium falciparum 3D7, 3D7
T3 sequence (O96935 whole entry): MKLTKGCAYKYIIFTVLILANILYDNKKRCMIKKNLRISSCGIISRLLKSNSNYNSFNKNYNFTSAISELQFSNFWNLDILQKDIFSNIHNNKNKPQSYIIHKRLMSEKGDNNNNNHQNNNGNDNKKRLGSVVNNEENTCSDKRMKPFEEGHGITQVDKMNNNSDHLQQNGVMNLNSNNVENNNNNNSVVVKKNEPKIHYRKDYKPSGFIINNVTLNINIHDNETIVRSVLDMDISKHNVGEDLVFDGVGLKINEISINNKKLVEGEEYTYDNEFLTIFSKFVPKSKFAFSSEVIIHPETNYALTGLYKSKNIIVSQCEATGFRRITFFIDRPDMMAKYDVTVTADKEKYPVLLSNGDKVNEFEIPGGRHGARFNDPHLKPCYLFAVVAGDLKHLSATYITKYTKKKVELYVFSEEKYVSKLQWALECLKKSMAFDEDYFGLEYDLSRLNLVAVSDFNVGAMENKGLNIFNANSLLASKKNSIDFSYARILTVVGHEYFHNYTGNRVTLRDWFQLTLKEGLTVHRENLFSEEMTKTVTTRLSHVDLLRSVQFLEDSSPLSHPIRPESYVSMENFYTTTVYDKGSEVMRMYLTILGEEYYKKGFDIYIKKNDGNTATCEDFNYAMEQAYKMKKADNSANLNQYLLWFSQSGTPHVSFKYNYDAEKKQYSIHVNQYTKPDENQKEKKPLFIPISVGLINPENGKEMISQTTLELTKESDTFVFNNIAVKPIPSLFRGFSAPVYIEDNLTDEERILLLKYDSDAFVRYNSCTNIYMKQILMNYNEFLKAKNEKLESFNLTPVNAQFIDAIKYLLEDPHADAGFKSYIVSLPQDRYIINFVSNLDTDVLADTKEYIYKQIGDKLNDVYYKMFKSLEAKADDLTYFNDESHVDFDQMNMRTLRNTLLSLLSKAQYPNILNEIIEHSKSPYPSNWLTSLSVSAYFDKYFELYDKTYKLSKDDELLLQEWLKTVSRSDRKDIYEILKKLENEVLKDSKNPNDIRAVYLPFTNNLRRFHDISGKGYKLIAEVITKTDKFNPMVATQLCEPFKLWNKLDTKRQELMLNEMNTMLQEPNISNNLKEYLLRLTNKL

[5] = molecular target: T4, Corticotropin-releasing factor receptor 2/Corticotropin-releasing factor-binding protein (Homo sapiens, UniProt P24387+Q13324); assay: activators of CRF receptor 2 with binding protein – uHTS hits, confirmation (AID 602473); assay type: functional; details: read-out: EC50_Mean
T4 sequence (Q13324 whole entry): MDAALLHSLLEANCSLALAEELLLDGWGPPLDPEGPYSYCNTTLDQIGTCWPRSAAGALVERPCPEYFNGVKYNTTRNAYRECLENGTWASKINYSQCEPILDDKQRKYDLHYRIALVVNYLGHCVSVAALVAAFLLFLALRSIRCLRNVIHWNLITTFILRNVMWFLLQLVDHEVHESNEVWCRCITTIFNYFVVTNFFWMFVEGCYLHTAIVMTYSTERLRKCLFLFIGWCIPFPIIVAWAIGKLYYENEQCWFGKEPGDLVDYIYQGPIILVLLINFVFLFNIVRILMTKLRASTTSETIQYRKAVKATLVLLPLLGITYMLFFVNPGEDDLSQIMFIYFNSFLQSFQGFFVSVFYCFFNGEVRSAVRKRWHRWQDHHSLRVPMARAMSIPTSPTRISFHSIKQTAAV
T4 sequence (P24387 whole entry): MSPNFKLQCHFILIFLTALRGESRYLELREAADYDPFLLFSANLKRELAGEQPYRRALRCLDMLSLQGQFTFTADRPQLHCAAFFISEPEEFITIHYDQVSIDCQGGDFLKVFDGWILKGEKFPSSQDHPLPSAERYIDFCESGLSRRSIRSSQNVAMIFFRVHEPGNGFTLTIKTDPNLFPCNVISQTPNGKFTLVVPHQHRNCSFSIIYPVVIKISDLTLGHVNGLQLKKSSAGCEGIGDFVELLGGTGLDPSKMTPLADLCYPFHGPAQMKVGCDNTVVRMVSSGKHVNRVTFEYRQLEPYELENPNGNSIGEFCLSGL

HEK293 [6] = assay: cells; assay type: functional, cell-based; details: Homo sapiens
HEK293 [7] = assay: cells; assay type: functional, cell-based; details: Homo sapiens; remark: listed apart in the source
HEK293 [8] = assay: NOD2 signaling inhibitors in MDP-stimulated cells, cell-based, uHTS, luminescence (AID 2001); assay type: functional; details: Homo sapiens
HEK293 [9] = assay: NOD1 signaling inhibitors, primary screen, cell-based, luminescence, uHTS (AID 1578); assay type: functional; details: Homo sapiens
HEK293 [10] = assay: cells; assay type: functional, cell-based; details: Homo sapiens; remark: listed apart in the source
cells = assay type: functional
[11] = molecular target: Nucleotide-binding oligomerization domain-containing protein 2 (Homo sapiens, UniProt Q9HC29); assay: NOD2 signaling inhibitors, cell-based, luminescence, uHTS, HEK293 (AID 1566); assay type: functional
[12] = C. albicans growth with fluconazole, confirmation, fluorescence, retest (AID 2467); assay type: functional, cell-based
[13] = NIH-3T3 fibroblast cytotoxicity, dose response, cytotoxicity control, cell-based, fluorescence, Alamar Blue, secondary assay (AID 2327); assay type: functional;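 note: NIH-3T3 mouse fibroblasts cultured with fluconazole at 8 µg/mL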
[14] = molecular target: FAD-linked sulfhydryl oxidase ALR (Homo sapiens, UniProt P55789); assay: inhibitors of human ALR sulfhydryl oxidase, dose response, biochemical, H2O2 detection, luminescence, cherry-pick (AID 493248)
[15] = growth suppression of PTEN-null colon cells, dose response, cell-based, HCT116 PTEN knockout (AID 1047); assay type: functional;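 note: HCT116 colon tumor cells with PTEN knocked out; cells exposed to compound for 60 hours before readout; potency for loss of cell viability measured by luminescence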
[16] = Vero E6 cell cytotoxicity, dose response, cytotoxicity control for non-replicating M. tuberculosis project, secondary assay (AID 492998); assay type: functional, VeroE6; details: Vero C1008
[17] = THP-1 cell cytotoxicity, dose response, cytotoxicity control for non-replicating M. tuberculosis project (AID 489025); assay type: functional
[18] = growth suppression of beta-catenin-knockout colon cells, dose response, cell-based, HCT116, human colon tumor (AID 1045); assay type: functional;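 note: HCT116 colon tumor cells with beta catenin knocked out; cells exposed to compound for 60 hours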

Chain of DNA dC->dU-editing enzyme APOBEC-3G (Q9HC16 whole entry): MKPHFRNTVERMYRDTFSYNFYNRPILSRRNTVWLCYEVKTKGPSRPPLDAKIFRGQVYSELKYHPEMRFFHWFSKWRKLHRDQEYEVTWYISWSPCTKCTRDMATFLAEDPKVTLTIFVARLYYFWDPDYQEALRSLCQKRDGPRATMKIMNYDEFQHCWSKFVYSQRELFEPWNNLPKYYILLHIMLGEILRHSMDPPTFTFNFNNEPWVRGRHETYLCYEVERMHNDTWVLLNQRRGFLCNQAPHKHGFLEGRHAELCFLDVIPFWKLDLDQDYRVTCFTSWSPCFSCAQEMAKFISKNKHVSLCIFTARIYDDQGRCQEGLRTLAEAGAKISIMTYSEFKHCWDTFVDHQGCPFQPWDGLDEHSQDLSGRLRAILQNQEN
Chain of DNA dC->dU-editing enzyme APOBEC-3A (P31941 whole entry): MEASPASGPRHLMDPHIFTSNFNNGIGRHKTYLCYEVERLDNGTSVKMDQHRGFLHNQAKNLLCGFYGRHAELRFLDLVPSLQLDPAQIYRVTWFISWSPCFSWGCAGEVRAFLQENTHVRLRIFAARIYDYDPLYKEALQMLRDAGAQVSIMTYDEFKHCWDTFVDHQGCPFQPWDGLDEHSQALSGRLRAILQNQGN
Chain of Nucleotide-binding oligomerization domain-containing protein 2 (Q9HC29 whole entry, the tested form may be a part): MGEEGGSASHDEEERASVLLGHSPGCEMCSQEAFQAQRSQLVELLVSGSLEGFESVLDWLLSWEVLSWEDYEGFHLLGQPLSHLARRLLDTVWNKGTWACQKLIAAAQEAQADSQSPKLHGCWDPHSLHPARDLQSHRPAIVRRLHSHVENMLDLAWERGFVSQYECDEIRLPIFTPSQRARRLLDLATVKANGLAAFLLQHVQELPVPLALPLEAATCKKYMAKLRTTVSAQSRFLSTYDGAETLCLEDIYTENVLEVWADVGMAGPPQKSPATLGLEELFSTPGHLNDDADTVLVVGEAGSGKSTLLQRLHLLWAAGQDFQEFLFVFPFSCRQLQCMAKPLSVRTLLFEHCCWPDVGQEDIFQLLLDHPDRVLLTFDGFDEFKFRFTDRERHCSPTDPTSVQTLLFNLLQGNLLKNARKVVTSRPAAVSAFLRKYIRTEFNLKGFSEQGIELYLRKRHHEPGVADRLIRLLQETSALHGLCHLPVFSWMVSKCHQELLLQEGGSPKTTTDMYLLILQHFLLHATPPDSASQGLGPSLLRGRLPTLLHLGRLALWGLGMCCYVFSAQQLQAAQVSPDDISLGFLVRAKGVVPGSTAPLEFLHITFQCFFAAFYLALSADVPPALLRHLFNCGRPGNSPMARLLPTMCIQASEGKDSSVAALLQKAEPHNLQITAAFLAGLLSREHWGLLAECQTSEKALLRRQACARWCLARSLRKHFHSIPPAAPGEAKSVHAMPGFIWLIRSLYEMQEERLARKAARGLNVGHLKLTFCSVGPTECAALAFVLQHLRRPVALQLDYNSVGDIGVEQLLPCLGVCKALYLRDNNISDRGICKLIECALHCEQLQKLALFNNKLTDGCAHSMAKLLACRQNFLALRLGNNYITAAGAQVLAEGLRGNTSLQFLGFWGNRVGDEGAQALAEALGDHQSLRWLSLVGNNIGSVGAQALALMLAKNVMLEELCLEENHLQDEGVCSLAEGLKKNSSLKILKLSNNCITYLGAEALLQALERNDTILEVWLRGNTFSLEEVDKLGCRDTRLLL
Chain of FAD-linked sulfhydryl oxidase ALR (P55789 whole entry): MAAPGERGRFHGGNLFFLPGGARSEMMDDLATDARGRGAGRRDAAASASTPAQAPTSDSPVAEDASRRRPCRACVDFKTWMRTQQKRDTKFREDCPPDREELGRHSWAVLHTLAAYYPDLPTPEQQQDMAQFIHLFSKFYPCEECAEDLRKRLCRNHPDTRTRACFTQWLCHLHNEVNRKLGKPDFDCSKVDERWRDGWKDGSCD

Question: Which results are given for `CCn1nc(NC(=O)COC)c2cc3cc(C)ccc3nc21`?
Answer: IC50 [1]: 5.02 µM (active); IC50 [2]: 6.5 µM (active)

Question: With `CCCCC(c1nnnn1CC1CCCO1)N1CCN(Cc2ccccc2)CC1` (stereo not given) as the compound, how does the EC50 [3] read?
Answer: 2.37 µM (active)

Question: And the EC50 [4]?
Answer: 4.73 µM (active)

Question: Which IC50 (Leucine aminopeptidase) does the source give for `COc1ccc(/C=N/NC2=NC(=O)C(CC(=O)O)S2)cc1OCc1ccc(Cl)cc1` (stereo not given) here?
Answer: 20.3 µM (active)

Question: What about the IC50 (Aminopeptidase N) of the same compound?
Answer: 66.7 µM (active)

Question: Which IC50 (Aminopeptidase N) does the source give for `COc1cc(OC)c(NC(=O)c2ccc3c(SCC(=O)O)c4c(nc3c2)CCCC4)cc1Cl` here?
Answer: 31.6 µM (active)

Question: Which EC50 [5] does the source give for `CC1CN(C(=O)c2ccc(NS(=O)(=O)c3ccc(C(C)(C)C)cc3)cc2)CC(C)O1` (stereo not given) here?
Answer: 15.7 µM (active)

Question: What about the EC50 [4] of the same compound?
Answer: 5.96 µM (active)

Question: For `CN1CCN(S(=O)(=O)c2cccc(C(=O)N3CCN(c4ccccc4F)CC3)c2)CC1`, which IC50 [1] is on record?
Answer: 10.1 µM (active)

Question: What about the IC50 [2] of the same compound?
Answer: 19.2 µM (active)

Question: What does the source list for `Cc1nonc1C(=O)N/N=C/c1ccc([N+](=O)[O-])o1`?
Answer: IC50 (HEK293 [6]): > 20 µM (inactive); IC50 (HEK293 [7]): > 20 µM (inactive); IC50 (HEK293 [8]): > 20 µM (inactive); EC50 (HEK293 [9]): 9.04 µM (active); IC50 (HEK293 [10]): > 20 µM (inactive); IC50 (cells): 8.02 µM (active); EC50 [11]: 10.9 µM (active); EC50 [12]: 1.82 µM (active); EC50 [13]: 30.2 µM (active)

Question: Which IC50 (Leucine aminopeptidase) does the source give for `Nc1n[nH]c(N)c1N=Nc1ccccc1` here?
Answer: 7.03 µM (active)

Question: And the AC50 [14]?
Answer: 6.02 µM (active)

Question: Which EC50 [15] does the source give for `COc1ccc(/C=C2\COc3ccccc3C2=O)cc1OC` here?
Answer: 7.42 µM (active)

Question: What about the CC50 [16] of the same compound?
Answer: > 20 µM (active)

Question: And the CC50 [17]?
Answer: 17.9 µM (active)

Question: And the EC50 [18]?
Answer: 7.29 µM (active)

Question: And the IC50 (cells)?
Answer: 12.8 µM (active)

Question: Which CC50 [16] does the source give for `COc1cc(CNCCc2ccccc2)cc(Br)c1OCC(=O)Nc1ccccc1C` here?
Answer: 19.4 µM (active)

Question: And the CC50 [17]?
Answer: 23.1 µM (active)

Question: And the IC50 (cells)?
Answer: 21.2 µM (active)
